{"source": "patent US20220104493A1", "about": "“HERBICIDAL COMPOUNDS” (SYNGENTA CROP PROTECTION AG, priority 2019, published 2022)", "type_in_all_cases": "in vivo", "key": {"[1]": {"tested_on": "Setaria faberi (SETFA)", "test": "Post-emergence efficacy, Method A", "settings": "500 g/Ha, 100=total damage to plant, 0=no damage, evaluated after 7 and 14 days, read-out: Control of weed species after post-emergence application, SETFA"}, "[2]": {"tested_on": "Chenopodium album (CHEAL)", "test": "Post-emergence efficacy, Method A", "settings": "500 g/Ha, 100=total damage to plant, 0=no damage, evaluated after 7 and 14 days, read-out: Control of weed species after post-emergence application, CHEAL"}, "[3]": {"tested_on": "Euphorbia heterophylla (EPHHL)", "test": "Post-emergence efficacy, Method A", "settings": "500 g/Ha, 100=total damage to plant, 0=no damage, evaluated after 7 and 14 days, read-out: Control of weed species after post-emergence application, EPHHL"}, "[4]": {"tested_on": "Eleusine indica (ELEIN)", "test": "Post-emergence efficacy, Method A", "settings": "500 g/Ha, 100=total damage to plant, 0=no damage, evaluated after 7 and 14 days, read-out: Control of weed species after post-emergence application, ELEIN"}, "[5]": {"tested_on": "Amaranthus palmeri (AMAPA)", "test": "Post-emergence efficacy, Method A", "settings": "500 g/Ha, 100=total damage to plant, 0=no damage, evaluated after 7 and 14 days, read-out: Control of weed species after post-emergence application, AMAPA"}, "[6]": {"tested_on": "Echinochloa crus-galli (ECHCG)", "test": "Post-emergence efficacy, Method A", "settings": "500 g/Ha, 100=total damage to plant, 0=no damage, evaluated after 7 and 14 days, read-out: Control of weed species after post-emergence application, ECHCG"}, "[7]": {"tested_on": "Digitaria sanguinalis (DIGSA)", "test": "Post-emergence efficacy, Method A", "settings": "500 g/Ha, 100=total damage to plant, 0=no damage, evaluated after 7 and 14 days, read-out: Control of weed species after post-emergence application, DIGSA"}, "[8]": {"tested_on": "Lolium perenne (LOLPE)", "test": "Post-emergence efficacy, Method A", "settings": "500 g/Ha, 100=total damage to plant, 0=no damage, evaluated after 7 and 14 days, read-out: Control of weed species after post-emergence application, LOLPE"}, "[9]": {"tested_on": "Ipomoea hederacea (IPOHE)", "test": "Post-emergence efficacy, Method A", "settings": "500 g/Ha, 100=total damage to plant, 0=no damage, evaluated after 7 and 14 days, read-out: Control of weed species after post-emergence application, IPOHE"}, "[10]": {"tested_on": "Glycine Max (GLXMA)", "test": "Post-emergence efficacy, Method B", "description": "(§1) Seeds of a variety of test species were sown in standard loam based soil in pots. Plants were cultivated from between 21 and 28 days (post-emergence) under controlled conditions in a glasshouse (at 24/16° C., day/night; 14 hours light; 65% humidity) for warm climate species and (at 20/16° C. day/night; 15 hours light; 65% humidity) for cool climate species.\n(§2) The plants were sprayed with an aqueous spray solution derived from dissolving the technical active ingredient formula in a small amount of acetone and a special solvent and emulsifier mixture referred to as IF50 (11.12% Emulsogen EL360 TM+44.44% N-methylpyrrolidone+44.44% Dowanol DPM glycol ether), to create a 50 g/l solution which was then diluted to required concentration using 0.5% or 1% Empicol ESC70 (Sodium lauryl ether sulphate)+1% ammonium sulphate as diluent.\n(§3) The delivery of the aqueous spray solution was via a laboratory track sprayer which delivered the aqueous spray composition at a rate of 200 litres per hectare, using a flat fan nozzle (Teejet 11002VS) and an application volume of 200 litre/ha (at 2 bar).\n(§4) The test plants were then grown in a glasshouse under controlled conditions (at 24/16° C., day/night; 14 hours light; 65% humidity) for warm climate species and (at 20/16° C. day/night; 15 hours light; 65% humidity) for cool climate species and watered twice daily. After 7 and 14 days the test was evaluated (100=total damage to plant; 0=no damage to plant).\n(§5) Brassica napus (BRSNN), Solanum turberosum (SOLTU), Glycine Max (GLXMA), and Helianthus annus (HELAN)"}, "[11]": {"tested_on": "Brassica napus (BRSNN)", "test": "Post-emergence efficacy, Method B", "description": "as §1, §2, §3, §4, §5"}, "[12]": {"tested_on": "Solanum turberosum (SOLTU)", "test": "Post-emergence efficacy, Method B", "description": "as §1, §2, §3, §4, §5"}, "[13]": {"tested_on": "Helianthus annus (HELAN)", "test": "Post-emergence efficacy, Method B", "settings": "second set of rows of Table C (evaluated after 7 and 14 days, day not printed)", "description": "as §1, §2, §3, §4, §5"}, "[14]": {"settings": "50 g/Ha, first set of rows of Table C (evaluated after 7 and 14 days, day not printed)"}, "[15]": {"settings": "50 g/Ha, second set of rows of Table C (evaluated after 7 and 14 days, day not printed)"}, "[16]": {"settings": "150 g/Ha, first set of rows of Table C (evaluated after 7 and 14 days, day not printed)"}, "[17]": {"settings": "150 g/Ha, second set of rows of Table C (evaluated after 7 and 14 days, day not printed)"}, "[18]": {"settings": "600 g/Ha, first set of rows of Table C (evaluated after 7 and 14 days, day not printed)"}, "[19]": {"settings": "600 g/Ha, second set of rows of Table C (evaluated after 7 and 14 days, day not printed)"}}}
{"smiles": "O=S(=O)([O-])C[n+]1ccc(-c2ncns2)cc1", "note": "[Compound A4, [4-(1,2,4-thiadiazol-5-yl)pyridin-1-ium-1-yl]methanesulfonate]", "values": [{"measurement": "pest or weed control at 500 g/ha", "setting": "[1]", "result": 80, "unit": "%"}, {"measurement": "pest or weed control at 500 g/ha", "setting": "[2]", "result": 100, "unit": "%"}, {"measurement": "pest or weed control at 500 g/ha", "setting": "[3]", "result": 100, "unit": "%"}, {"measurement": "pest or weed control at 500 g/ha", "setting": "[4]", "result": 80, "unit": "%"}, {"measurement": "pest or weed control at 500 g/ha", "setting": "[5]", "result": 100, "unit": "%"}, {"measurement": "pest or weed control at 500 g/ha", "setting": "[6]", "result": 70, "unit": "%"}, {"measurement": "pest or weed control at 500 g/ha", "setting": "[7]", "result": 70, "unit": "%"}, {"measurement": "pest or weed control at 500 g/ha", "setting": "[8]", "result": 80, "unit": "%"}, {"measurement": "pest or weed control at 500 g/ha", "setting": "[9]", "result": 100, "unit": "%"}, {"measurement": "Control after post-emergence application, GLXMA (100=total damage to plant; 0=no damage to plant)", "setting": "[10]; [14]", "result": 45}, {"measurement": "Control after post-emergence application, GLXMA (100=total damage to plant; 0=no damage to plant)", "setting": "[10]; [15]", "result": 52}, {"measurement": "Control after post-emergence application, GLXMA (100=total damage to plant; 0=no damage to plant)", "setting": "[10]; [16]", "result": 83}, {"measurement": "Control after post-emergence application, GLXMA (100=total damage to plant; 0=no damage to plant)", "setting": "[10]; [17]", "result": 62}, {"measurement": "Control after post-emergence application, GLXMA (100=total damage to plant; 0=no damage to plant)", "setting": "[10]; [18]", "result": 93}, {"measurement": "Control after post-emergence application, GLXMA (100=total damage to plant; 0=no damage to plant)", "setting": "[10]; [19]", "result": 85}, {"measurement": "Control after post-emergence application, BRSNN (100=total damage to plant; 0=no damage to plant)", "setting": "[11]; [14]", "result": 23}, {"measurement": "Control after post-emergence application, BRSNN (100=total damage to plant; 0=no damage to plant)", "setting": "[11]; [15]", "result": 43}, {"measurement": "Control after post-emergence application, BRSNN (100=total damage to plant; 0=no damage to plant)", "setting": "[11]; [16]", "result": 32}, {"measurement": "Control after post-emergence application, BRSNN (100=total damage to plant; 0=no damage to plant)", "setting": "[11]; [17]", "result": 57}, {"measurement": "Control after post-emergence application, BRSNN (100=total damage to plant; 0=no damage to plant)", "setting": "[11]; [18]", "result": 43}, {"measurement": "Control after post-emergence application, BRSNN (100=total damage to plant; 0=no damage to plant)", "setting": "[11]; [19]", "result": 80}, {"measurement": "Control after post-emergence application, SOLTU (100=total damage to plant; 0=no damage to plant)", "setting": "[12]; [14]", "result": 15}, {"measurement": "Control after post-emergence application, SOLTU (100=total damage to plant; 0=no damage to plant)", "setting": "[12]; [15]", "result": 50}, {"measurement": "Control after post-emergence application, SOLTU (100=total damage to plant; 0=no damage to plant)", "setting": "[12]; [16]", "result": 30}, {"measurement": "Control after post-emergence application, SOLTU (100=total damage to plant; 0=no damage to plant)", "setting": "[12]; [17]", "result": 60}, {"measurement": "Control after post-emergence application, SOLTU (100=total damage to plant; 0=no damage to plant)", "setting": "[12]; [18]", "result": 82}, {"measurement": "Control after post-emergence application, SOLTU (100=total damage to plant; 0=no damage to plant)", "setting": "[12]; [19]", "result": 67}, {"measurement": "Control after post-emergence application, HELAN (100=total damage to plant; 0=no damage to plant)", "setting": "[13]; 50 g/Ha", "result": 97}, {"measurement": "Control after post-emergence application, HELAN (100=total damage to plant; 0=no damage to plant)", "setting": "[13]; 150 g/Ha", "result": 100}, {"measurement": "Control after post-emergence application, HELAN (100=total damage to plant; 0=no damage to plant)", "setting": "[13]; 600 g/Ha", "result": 100}]}
